Source: patent publication US5488051A, “Substituted 5,6-dihydro-5-oxo-1,4-dithiino-(2,3-d)-pyridazine-2,3-dicarbonitriles, compositions containing them and their use as antimicrobials” (The Dow Chemical Company, priority 1994, dated 1996)
Values after ≈ are worked out from the molar mass of the structure shown. Read-outs that look alike come from different tables or passages of the source.

Assays:
Bacillus subtilis (Bs) = experiment: MIC for Bacillus subtilis, nutrient agar; assay type: cell-based, Bacillus subtilis ATCC 8473
Description: (§1) The minimum inhibitory concentration (MIC) for the compounds listed in Table I is determined for 9 bacteria, using nutrient agar; and 7 yeast and fungi, using malt yeast agar. A one percent solution of the test compound is prepared in a mixture of acetone and water.
(§2) Nutrient agar is prepared at pH 6.8, representing a neutral medium, and at pH 8.2, representing an alkaline medium. The nutrient agars are prepared by adding 23 g of nutrient agar to one-liter of deionized water. In addition, the alkaline medium is prepared by adjusting a 0.04M solution of N-[tris-(hydroxymethyl)methyl]-glycine buffered deionized water with concentrated sodium hydroxide to a pH of 8.5.
(§3) The test tubes containing the malt yeast agar and the nutrient agar are cooled in a water bath until the temperature of the agar is 48° C. Then, an appropriate amount of the one percent solution of the test compound is added (except in the controls where no compound is added) to the respective test tubes so that the final concentrations are zero (0), 1.0, 2.5, 5, 10, 25, 50, 100, 250 and 500 parts per million of the test compound in each of the respective type of agar. The contents of each of the test tubes are then transferred to separate petri plates. After drying for 24 hours, the petri plates containing nutrient agar are inoculated with bacteria and those containing malt yeast agar are inoculated with yeast and fungi.
(§4) The inoculation with bacteria is accomplished by using the following procedure. Twenty-four hour-cultures of each of the bacteria are prepared by incubating the respective bacteria in tubes containing nutrient broth for 24 hours at 30° C. in a shaker. Dilutions of each of the 24 hour-cultures are made so that nine separate suspensions (one for each of the nine test bacteria) are made, each containing 10^8 colony forming units (CFU) per mL of suspension of a particular bacteria. Aliquots of 0.3 mL of each of the bacterial suspensions are used to fill the individual wells of Steer's Replicator. For each microbial suspension, 0.3 mL was used to fill three wells (i.e., three wells of 0.3 mL each) so that for the nine different bacteria, 27 wells are filled. The Steer's Replicator is then used to inoculate both the neutral and alkaline pH nutrient agar petri plates.
(§5) The inoculated petri plates are incubated at 30° C. for 48 hours and then read to determine if the test compound which is incorporated into the agar prevented growth of the respective bacteria.
(§6) Table II list the bacteria, yeast and fungi used in the MIC test described above along with their respective American Type Culture Collection (ATCC) identification numbers.

Salmonella choleraesuis = experiment: MIC for Salmonella choleraesuis, nutrient agar; assay type: cell-based, Salmonella choleraesuis ATCC 10708; settings: Salmonella enterica
Description: as §1, §2, §3, §4, §5, §6

Fusarium oxysporum (Fo) = experiment: MIC for Fusarium oxysporum, malt yeast agar; assay type: cell-based, Fusarium oxysporum ATCC 48112; settings: read-out: Minimum Inhibitory Concentration (MIC), Fo
Description: as §1
(§7) Malt yeast agar is prepared by adding 3 g yeast extract and 45 g malt agar per liter of deionized water. The specific agar is dispensed in 30 mL aliquots into 25×200 mm test tubes, capped and autoclaved for 15 minutes at 115° C.
as §3
(§8) The inoculation with the yeast and fungi is accomplished as follows. Cultures of yeast and fungi are incubated for seven days on malt yeast agar at 30° C. These cultures are used to prepare suspensions by the following procedure. A suspension of each organism is prepared by adding 10 mL of sterile saline and 10 microliters of octylphenoxy polyethoxy ethanol to the agar slant of yeast or fungi. The sterile saline/octylphenoxy polyethoxy ethanol solution is then agitated with a sterile swab to suspend the microorganism grown on the slant. Each resulting suspension is diluted into sterile saline (1 part suspension: 9 parts sterile saline). Aliquots of these dilutions are placed in individual wells of Steer's Replicator and petri plates inoculated as previously described. The petri plates are incubated at 30° C. and read after 48 hours for yeast and 72 hours for fungi.
as §6

[1] = test system: Penicillium chrysogenum (Pc); experiment: MIC for Penicillium chrysogenum, malt yeast agar; assay type: cell-based, Penicillium chrysogenum ATCC 9480; settings: read-out: Minimum Inhibitory Concentration (MIC), PC
Description: as §1, §7, §3, §8, §6

[2] = test system: Aureobasidium pullulan (Ap); experiment: MIC for Aureobasidium pullulan, malt yeast agar; assay type: cell-based, Aureobasidium pullulan ATCC 16622; settings: read-out: Minimum Inhibitory Concentration (MIC), Ap
Description: as §1, §7, §3, §8, §6

[3] = test system: Pseudomonas aeruginosa (PRD-10); experiment: MIC for Pseudomonas aeruginosa PRD-10, nutrient agar; assay type: cell-based, Pseudomonas aeruginosa ATCC 15442
Description: as §1, §2, §3, §4, §5, §6

[4] = test system: Pseudomonas aeruginosa (Pa); experiment: MIC for Pseudomonas aeruginosa, nutrient agar; assay type: cell-based, Pseudomonas aeruginosa ATCC 10145; settings: 48 hours, read-out: Minimum Inhibitory Concentration (MIC), Pa
Description: as §1, §2, §3, §4, §5, §6

Proteus vulgaris (Pv) = experiment: MIC for Proteus vulgaris, nutrient agar; assay type: cell-based, Proteus vulgaris ATCC 881
Description: as §1, §2, §3, §4, §5, §6

Escherichia coli (Ec) = experiment: MIC for Escherichia coli, nutrient agar; assay type: cell-based, Escherichia coli ATCC 11229
Description: as §1, §2, §3, §4, §5, §6

Candida albicans (Ca) = experiment: MIC for Candida albicans, malt yeast agar; assay type: cell-based, Candida albicans ATCC 10231; settings: read-out: Minimum Inhibitory Concentration (MIC), Ca
Description: as §1, §7, §3, §8, §6

Aspergillus niger (An) = experiment: MIC for Aspergillus niger, malt yeast agar; assay type: cell-based, Aspergillus niger ATCC 16404; settings: read-out: Minimum Inhibitory Concentration (MIC), An
Description: as §1, §7, §3, §8, §6

Trichoderma viride (Tv) = experiment: MIC for Trichoderma viride, malt yeast agar; assay type: cell-based, Trichoderma viride ATCC 8678; settings: read-out: Minimum Inhibitory Concentration (MIC), Tv
Description: as §1, §7, §3, §8, §6

[5] = test system: Enterobacter aerogenes (Ea); experiment: MIC for Enterobacter aerogenes, nutrient agar; assay type: cell-based, Enterobacter aerogenes ATCC 13048; settings: Klebsiella aerogenes
Description: as §1, §2, §3, §4, §5, §6

Saccharomyces cerevisiae = experiment: MIC for Saccharomyces cerevisiae, malt yeast agar; assay type: cell-based, Saccharomyces cerevisiae ATCC 4105; settings: read-out: Minimum Inhibitory Concentration (MIC), Sc
Description: as §1, §7, §3, §8, §6

[6] = test system: Klebsiella pneumonias (Kp); experiment: MIC for Klebsiella pneumonias, nutrient agar; assay type: cell-based, Klebsiella pneumonias ATCC 8308
Description: as §1, §2, §3, §4, §5, §6

[7] = test system: Staphylococcus aureus (Sa); experiment: MIC for Staphylococcus aureus, nutrient agar; assay type: cell-based, Staphylococcus aureus ATCC 6538
Description: as §1, §2, §3, §4, §5, §6

[8] = malt yeast agar, 30° C., 72 hours for fungi
[9] = malt yeast agar, 30° C., 48 hours for yeast

Structure (SMILES): Cc1ccc(Cn2ncc3c(c2=O)SC(C#N)=C(C#N)S3)cc1 [K, 5,6-dihydro-6-((4-methylphenyl)methyl)-5-oxo-1,4-dithiino-(2,3-d)-pyridazine-2,3-dicarbonitrile]
- MIC (Bacillus subtilis (Bs); pH 6.8, nutrient agar, 30° C., 48 hours, read-out: Minimum Inhibitory Concentration (MIC), Bs): < 10 µg/mL
- MIC (Bacillus subtilis (Bs); pH 8.2, nutrient agar, 30° C., 48 hours, read-out: Minimum Inhibitory Concentration (MIC), Bs): 100 µg/mL (≈ 295 µM)
- MIC (Salmonella choleraesuis; pH 6.8, nutrient agar, 30° C., 48 hours, read-out: Minimum Inhibitory Concentration (MIC), SC): > 500 µg/mL
- MIC (Salmonella choleraesuis; pH 8.2, nutrient agar, 30° C., 48 hours, read-out: Minimum Inhibitory Concentration (MIC), SC): > 500 µg/mL
- MIC (Fusarium oxysporum (Fo); [8]): 25 µg/mL (≈ 73.9 µM)
- MIC [1, 8]: 25 µg/mL (≈ 73.9 µM)
- MIC ([2]; malt yeast agar, 30° C., 48 hours for yeast and 72 hours for fungi): < 10 µg/mL
- MIC ([3]; pH 6.8, nutrient agar, 30° C., 48 hours, read-out: Minimum Inhibitory Concentration (MIC), PRD): > 500 µg/mL
- MIC ([3]; pH 8.2, nutrient agar, 30° C., 48 hours, read-out: Minimum Inhibitory Concentration (MIC), PRD): > 500 µg/mL
- MIC ([4]; pH 6.8, 30° C.): > 500 µg/mL
- MIC ([4]; pH 8.2, 30° C.): > 500 µg/mL
- MIC (Proteus vulgaris (Pv); pH 6.8, nutrient agar, 30° C., 48 hours, read-out: Minimum Inhibitory Concentration (MIC), Pv): 500 µg/mL (≈ 1480 µM)
- MIC (Proteus vulgaris (Pv); pH 8.2, nutrient agar, 30° C., 48 hours, read-out: Minimum Inhibitory Concentration (MIC), Pv): > 500 µg/mL
- MIC (Escherichia coli (Ec); pH 6.8, nutrient agar, 30° C., 48 hours, read-out: Minimum Inhibitory Concentration (MIC), Ec): > 500 µg/mL
- MIC (Escherichia coli (Ec); pH 8.2, nutrient agar, 30° C., 48 hours, read-out: Minimum Inhibitory Concentration (MIC), Ec): > 500 µg/mL
- MIC (Candida albicans (Ca); [9]): 25 µg/mL (≈ 73.9 µM)
- MIC (Aspergillus niger (An); [8]): 25 µg/mL (≈ 73.9 µM)
- MIC (Trichoderma viride (Tv); [8]): 25 µg/mL (≈ 73.9 µM)
- MIC ([5]; pH 6.8, nutrient agar, 30° C., 48 hours, read-out: Minimum Inhibitory Concentration (MIC), Ea): > 500 µg/mL
- MIC ([5]; pH 8.2, nutrient agar, 30° C., 48 hours, read-out: Minimum Inhibitory Concentration (MIC), Ea): > 500 µg/mL
- MIC (Saccharomyces cerevisiae; [9]): 25 µg/mL (≈ 73.9 µM)
- MIC ([6]; pH 6.8, nutrient agar, 30° C., 48 hours, read-out: Minimum Inhibitory Concentration (MIC), Kp): > 500 µg/mL
- MIC ([6]; pH 8.2, nutrient agar, 30° C., 48 hours, read-out: Minimum Inhibitory Concentration (MIC), Kp): > 500 µg/mL
- MIC ([7]; pH 6.8, nutrient agar, 30° C., 48 hours, read-out: Minimum Inhibitory Concentration (MIC), Sa): > 500 µg/mL
- MIC ([7]; pH 8.2, nutrient agar, 30° C., 48 hours, read-out: Minimum Inhibitory Concentration (MIC), Sa): > 500 µg/mL

Structure (SMILES): ClC=CC[N+]12CN3CN(CN(C3)C1)C2.[Cl-] [STANDARD I, 1-(3-chloroallyl)-3,5,7-triaza-1-azoniaadamantane chloride, reference compound]
- MIC (Bacillus subtilis (Bs); 48 h, pH 6.8, read-out: Minimum Inhibitory Concentration (MIC), Bs): 50 µg/mL
- MIC (Bacillus subtilis (Bs); 48 h, pH 8.2, read-out: Minimum Inhibitory Concentration (MIC), Bs): 250 µg/mL
- MIC (Salmonella choleraesuis; 48 h, pH 6.8, read-out: Minimum Inhibitory Concentration (MIC), SC): 50 µg/mL
- MIC (Salmonella choleraesuis; 48 h, pH 8.2, read-out: Minimum Inhibitory Concentration (MIC), SC): 100 µg/mL
- MIC (Fusarium oxysporum (Fo); 72 h): > 500 µg/mL
- MIC ([1]; 72 h): > 500 µg/mL
- MIC [2]: > 500 µg/mL
- MIC ([3]; 48 h, pH 6.8, read-out: Minimum Inhibitory Concentration (MIC), PRD): 100 µg/mL
- MIC ([3]; 48 h, pH 8.2, read-out: Minimum Inhibitory Concentration (MIC), PRD): 500 µg/mL
- MIC ([4]; pH 6.8, 30° C.): 100 µg/mL
- MIC ([4]; pH 8.2, 30° C.): > 500 µg/mL
- MIC (Proteus vulgaris (Pv); 48 h, pH 6.8, read-out: Minimum Inhibitory Concentration (MIC), Pv): 50 µg/mL
- MIC (Proteus vulgaris (Pv); 48 h, pH 8.2, read-out: Minimum Inhibitory Concentration (MIC), Pv): 250 µg/mL
- MIC (Escherichia coli (Ec); 48 h, pH 6.8, read-out: Minimum Inhibitory Concentration (MIC), Ec): 100 µg/mL
- MIC (Escherichia coli (Ec); 48 h, pH 8.2, read-out: Minimum Inhibitory Concentration (MIC), Ec): 250 µg/mL
- MIC (Candida albicans (Ca); 48 h): > 500 µg/mL
- MIC (Aspergillus niger (An); 72 h): > 500 µg/mL
- MIC (Trichoderma viride (Tv); 72 h): > 500 µg/mL
- MIC ([5]; 48 h, pH 6.8, read-out: Minimum Inhibitory Concentration (MIC), Ea): 100 µg/mL
- MIC ([5]; 48 h, pH 8.2, read-out: Minimum Inhibitory Concentration (MIC), Ea): 250 µg/mL
- MIC (Saccharomyces cerevisiae; 48 h): 500 µg/mL
- MIC ([6]; 48 h, pH 6.8, read-out: Minimum Inhibitory Concentration (MIC), Kp): 50 µg/mL
- MIC ([6]; 48 h, pH 8.2, read-out: Minimum Inhibitory Concentration (MIC), Kp): 250 µg/mL
- MIC ([7]; 48 h, pH 6.8, read-out: Minimum Inhibitory Concentration (MIC), Sa): 100 µg/mL
- MIC ([7]; 48 h, pH 8.2, read-out: Minimum Inhibitory Concentration (MIC), Sa): 250 µg/mL
